Literature values as cited in US20180110888A1, “COMBINATIONS FOR THE TREATMENT OF CANCER” (BAYER PHARMA AKTIENGESELLSCHAFT, priority 2012, published 2018).

Assays:
[1] = system: CRPC (Castration Resistant Prostate Cancer) and bone metastases
[2] = single dose 250 kBq per kg body weight
[3] = phase 2 studies, patients with CRPC and bone metastases

excreted by feces (in vivo) [%]	excreted by urine (in vivo) [%]	terminal half life (in vivo) [h]	effect of administration with food (oral administration with food)	Compound	reduction in risk of death compared with placebo ([1]; overall survival, patients with CRPC and bone metastases) [%]	median survival longer than placebo by ([1]; patients with CRPC and bone metastases) [months]	time to first skeletal-related event ([1]; versus placebo)	safety profile (bone metastases; phase 1 and 2 studies, patients with bone metastases)	effect on disease-related biomarkers (bone ALP, PSA) (bone metastases; [3])	effect on pain (bone metastases; [3])	cases of grade 3 neutropenia [2]	observed adverse reactions [2]
				[Cl][223Ra][Cl] [radium-223, Radium-223 dichloride]	30.5	2.8	significantly prolonged	minimal myelotoxicity	improves disease-related biomarkers	reduces pain	1/5	diarrhea and reversible myelosuppression
~88	~5	12 ± 5	increases absorption	C[C@]12CC[C@H](O)CC1=CC[C@@H]1[C@@H]2CC[C@]2(C)C(c3cccnc3)=CC[C@@H]12 [abiraterone]								
